From patent US20250257045A1, “CAGED GLUTAMATE UNLEASHED BY BLUE AND GREEN LIGHT: INNOVATIVE PHOTOSENSITIVE CONTROL” (Florida Institute of Technology, Inc., priority 2024, published 2025)

Columns and labels:
[1] = Photolysis (uncaging) kinetics under blue/green LED irradiation; quantum yield by UV and 1H NMR with ferrioxalate actinometry; format: physicochemical; settings: for Φ (quantum yield / QE of uncaging): irradiation at 467 nm (TC) or 520 nm (BODIPY), LED flux 12.8 Wm-2, 23° C.; for εΦ (photo-cross-section): product of ε and Φ; for wavelength of visible light that activates / uncages the cage: single photon visible light
Procedure: (§1) After purification, the organic solvent was removed by rotovap under vacuum and the remaining aqueous concentrate was subjected to a freeze-drying system (lyophilizer-Freezone 4.5 made by LABCONCO) to isolate the purified final product. The preparation of the caged compounds and their corresponding purifications were conducted under red light in the dark. Final products were covered with aluminum foil and stored at −20° C. until further needed. Each product was characterized by Proton Nuclear Magnetic Resonance (hereinafter “1H NMR”) and Carbon-13 Nuclear Magnetic Resonance (hereinafter “^13C NMR”) using Bruker 400 MHZ NMR spectrometer instrumentation. NMR solvents such as CDCl3 and (CD3)2CO were purchased from the Cambridge Isotope Laboratories. Chemical shifts were reported relative to the internal standard peak of tetramethylsilane (TMS). […] Referring to FIG. 10, irradiation rigs constructed of two round metal containers stacked with blue LED strips (467 nm) and green LED strips (520 nm) on their inner walls were used as photoreactors to irradiate the caged molecules in photochemical studies. The light flux was determined using liquid-phase potassium ferrioxalate actinomentry.
The inventors studied the kinetics of uncaging of the two caged Glu designs (TC and BODIPY) and compared their efficiency of uncaging under identical conditions. They were irradiated with blue light at 467 nm and green light at 520 nm, respectively. Referring to FIG. 10, a temperature-controlled rig with purchased LED strips was set up.
The process for conducting the irradiation experiments comprised the following:
Sample Preparation: The caged molecules (containing the BODIPY photocage and Glutamate) were prepared in a solvent at a predetermined concentration. The solution was carefully prepared to ensure uniform dispersion of the molecules.
Irradiation Setup: The irradiation experiments were performed in a custom-built irradiation chamber equipped with the necessary safety measures (FIG. 10). The chamber was designed to prevent any unwanted exposure to the irradiation source and to maintain a controlled environment throughout the experiment.
Irradiation Source: The irradiation source used was from LED light Strips. This source was selected based on its wavelength range, intensity, and compatibility with the caged molecules' photochemistry. The source was positioned within the irradiation chamber to ensure an even and consistent illumination of the sample.
Sample Exposure: The sample solution was placed in a suitable container, ensuring that the solution thickness was uniform to minimize potential variations in the irradiation process. The container was positioned at a specific distance from the irradiation source, and the entire setup was shielded from external light sources to prevent interference.
Irradiation Protocol: The sample was irradiated for a predetermined duration, with the irradiation source emitting light at the desired wavelength range. The irradiation time was carefully controlled to maintain consistency across experiments.
Monitoring and Data Collection: Throughout the irradiation process, the changes in the sample's properties were monitored using spectroscopic techniques such as UV-Vis spectroscopy and NMR spectroscopy, depending on the specific properties being investigated. Data was collected at regular intervals to track the progress of the photochemical reaction.
Control Experiments: To validate the effects of irradiation, control experiments were conducted using identical conditions but without the presence of the caged molecules.
The quantification of the laser flux comprised the following:
A liquid-phase potassium ferrioxalate actinometer was prepared to measure the intensity of light in our irradiation rig, i.e., light flux, necessary for measurement of the quantum yields of various photochemical reactions.

[2] = UV-Vis absorption of caged Glu compounds; format: physicochemical; settings: for λMax: maximum absorbance wavelength; for ε(λMax): molar attenuation constant at λMax
Procedure: as §1
Referring to FIG. 6, a comprehensive assessment of 11 visible light-activated caged Glutamate (Glu) compounds was conducted using photophysical methods.

[3] = prior art caged Glu; cited from earlier work

Compound	Φ (quantum yield / QE of uncaging) [1]	εΦ (photo-cross-section) [1] [M⁻¹ cm⁻¹]	λMax [2] [nm]	ε(λMax) [2] [M⁻¹ cm⁻¹]	Φ (quantum yield / QE of uncaging) [1]; 8	Φ (quantum yield / QE of uncaging) ([1]; listed as Me-BODIPY-Br-Glu)	absorption maximum [3] [nm]	quantum yield (Φ) [3]	wavelength of visible light that activates / uncages the cage [1] [nm]
CC1=CC(C)=[N+]2C1=C(COC(=O)CCC(N)C(=O)O)c1c(C)cc(C)n1[B-]2(C)C (centres unmarked) [Me-BODIPY-H-Glu (6), 2-Amino-5-((1,3,5,5,7,9-hexamethyl-5H-414,514-dipyrrolo[1,2-c: 2′, 1′-f] [1,3,2]diazaborinin-10-yl)methoxy)-5-oxopentanoic acid]	0.074 ± 0.002	3230.0	511	43600 ± 200	–	–	–	–	–
N[C@@H](CCC(=O)N1CCc2c(OCC(=O)O)c([N+](=O)[O-])cc([N+](=O)[O-])c21)C(=O)O [CDNI-Glu]	–	–	–	–	–	–	350	0.5	–
7-Diethylamino-4-carboxylmethyl-thiocoumarin glutamate [TC-N-Glu (1)]	0.0017 ± 0.0002	38.2	461	21800 ± 100	–	–	–	–	445
CC1=C(I)C(C)=[N+]2C1=C(COC(=O)NC(CCC(=O)O)C(=O)O)c1c(C)c(I)c(C)n1[B-]2(C)C (centres unmarked) [Me-BODIPY-I-N-Glu (4), (((2,8-Diiodo-1,3,5,5,7,9-hexamethyl-5H-414,514-dipyrrolo[1,2-c: 2′, 1′-f] [1,3,2]diazaborinin-10-yl)methoxy)carbonyl) glutamic acid]	0.15 ± 0.01	1504.6	536	10030 ± 70	–	–	–	–	–
CC1=C(Br)C(C)=[N+]2C1=C(COC(=O)CCC(N)C(=O)O)c1c(C)c(Br)c(C)n1[B-]2(F)F (centres unmarked) [F-BODIPY-Br-Glu (11), 2-Amino-5-((2,8-dibromo-5,5-difluoro-1,3,7,9-tetramethyl-5H-414,514-dipyrrolo[1,2-c: 2′, 1′-f] [1,3,2]diazaborinin-10-yl)methoxy)-5-oxopentanoic acid]	0.0004 ± 0.00001	4.2	544	10300 ± 80	–	–	–	–	–

Continued, in another order:

Φ (quantum yield / QE of uncaging) [1]	εΦ (photo-cross-section) [1] [M⁻¹ cm⁻¹]	λMax [2] [nm]	ε(λMax) [2] [M⁻¹ cm⁻¹]	Φ (quantum yield / QE of uncaging) [1]; 8	Φ (quantum yield / QE of uncaging) ([1]; listed as Me-BODIPY-Br-Glu)	Compound	absorption maximum [3] [nm]	quantum yield (Φ) [3]	wavelength of visible light that activates / uncages the cage [1] [nm]
0.095 ± 0.003	2270.0	532	24000 ± 120	–	–	CCC1=C(C)C2=C(COC(=O)NC(CCC(=O)O)C(=O)O)c3c(C)c(CC)c(C)n3[B-](C)(C)[N+]2=C1C (centres unmarked) [Me-BODIPY-Et-N-Glu (2), (((2,8-Diethyl-1,3,5,5,7,9-hexamethyl-5H-414,514-dipyrrolo[1,2-c: 2′, 1′-f] [1,3,2]diazaborinin-10-yl)methoxy)carbonyl) glutamic acid]	–	–	–
0.0077 ± 0.0004	439.0	542	57200 ± 280	–	–	CCC1=C(C)C2=C(COC(=O)CCC(N)C(=O)O)c3c(C)c(CC)c(C)n3[B-](F)(F)[N+]2=C1C (centres unmarked) [F-BODIPY-Et-Glu (10), 2-Amino-5-((2,8-diethyl-5,5-difluoro-1,3,7,9-tetramethyl-5H-414,514-dipyrrolo[1,2-c: 2′, 1′-f] [1,3,2]diazaborinin-10-yl)methoxy)-5-oxopentanoic acid]	–	–	–
0.65 ± 0.01	35230.0	531	54200 ± 240	0.65	0.65	CC1=C(Br)C(C)=[N+]2C1=C(COC(=O)CCC(N)C(=O)O)c1c(C)c(Br)c(C)n1[B-]2(C)C (centres unmarked) [Me-BODIPY-Br-Glu (8), 2-Amino-5-((2,8-dibromo-1,3,5,5,7,9-hexamethyl-5H-414,514-dipyrrolo[1,2-c: 2′, 1′-f] [1,3,2]diazaborinin-10-yl)methoxy)-5-oxopentanoic acid]	–	–	540
0.0001 ± 0.00002	4.7	517	84600 ± 500	–	–	CC1=CC(C)=[N+]2C1=C(COC(=O)CCC(N)C(=O)O)c1c(C)cc(C)n1[B-]2(F)F (centres unmarked) [F-BODIPY-H-Glu (9), 2-Amino-5-((5,5-difluoro-1,3,7,9-tetramethyl-5H-414,514-dipyrrolo[1,2-c: 2′, 1′-f] [1,3,2]diazaborinin-10-yl)methoxy)-5-oxopentanoic acid]	–	–	–
0.029 ± 0.001	1040.0	532	35700 ± 180	–	–	CCC1=C(C)C2=C(COC(=O)CCC(N)C(=O)O)c3c(C)c(CC)c(C)n3[B-](C)(C)[N+]2=C1C (centres unmarked) [Me-BODIPY-Et-Glu (7), 2-Amino-5-((2,8-diethyl-1,3,5,5,7,9-hexamethyl-5H-414,514-dipyrrolo[1,2-c: 2′, 1′-f] [1,3,2]diazaborinin-10-yl)methoxy)-5-oxopentanoic acid]	–	–	–
0.0001 ± 0.00001	10.9	542	78300 ± 400	–	–	CCC1=C(C)C2=C(COC(=O)NC(CCC(=O)O)C(=O)O)c3c(C)c(CC)c(C)n3[B-](F)(F)[N+]2=C1C (centres unmarked) [F-BODIPY-Et-N-Glu (5), (((2,8-Diethyl-5,5-difluoro-1,3,7,9-tetramethyl-5H-414,514-dipyrrolo[1,2-c: 2′, 1′-f] [1,3,2]diazaborinin-10-yl)methoxy)carbonyl) glutamic acid]	–	–	–
0.12 ± 0.04	985.6	532	8213 ± 50	–	–	CC1=C(Br)C(C)=[N+]2C1=C(COC(=O)NC(CCC(=O)O)C(=O)O)c1c(C)c(Br)c(C)n1[B-]2(C)C (centres unmarked) [Me-BODIPY-Br-N-Glu (3), (((2,8-Dibromo-1,3,5,5,7,9-hexamethyl-5H-414,514-dipyrrolo[1,2-c: 2′, 1′-f] [1,3,2]diazaborinin-10-yl)methoxy)carbonyl) glutamic acid]	–	–	–
